Values of other authors in US20170119783A1, “Method for Treating Cognitive Impairment Associated With Neurodegenerative Disorders” (priority 2014, published 2017).
Read-outs that look alike come from different tables or passages of the source.

How the values were obtained:
[1] = test system: nucleic acid synthesis; settings: relative to artemisinin
[2] = test system: Plasmodium falciparum
[3] = test system: Ehrlich ascots tumor cells
[4] = within the group of artemisinin analogs
[5] = test system: cancer cells; settings: more effective for hepatoma and embryonic lung cells than human gastric cancer cells

SMILES	ability to inhibit nucleic acid synthesis, times the activity of artemisinin [1] [times]	efficacy against Ehrlich ascots tumor cells (in words) [3]	water solubility (in words)	also measured
C[C@H]1[C@H](OC(=O)CCC(=O)O)O[C@@H]2O[C@@]3(C)CC[C@H]4[C@H](C)CC[C@@H]1[C@@]24OO3 [artesunate]	100			antimalarial potency, times that of artemisinin ([2]; relative to artemisinin): 5.2 times
CCO[C@H]1O[C@@H]2O[C@@]3(C)CC[C@H]4[C@H](C)CC[C@@H]([C@H]1C)[C@@]24OO3 [arteether]	100	efficacy against Ehrlich ascots tumor cells	higher solubility in water	
CO[C@H]1O[C@@H]2O[C@@]3(C)CC[C@H]4[C@H](C)CC[C@@H]([C@H]1C)[C@@]24OO3 [Artemether]			higher solubility in water	
C[C@H]1[C@H](OC(=O)CCC(=O)[O-])O[C@@H]2O[C@@]3(C)CC[C@H]4[C@H](C)CC[C@@H]1[C@@]24OO3.[Na+] [sodium artesunate]		efficacy against Ehrlich ascots tumor cells		
C[C@@H]1[C@H](OCc2ccc(C(=O)O)cc2)O[C@@H]2O[C@@]3(C)CC[C@@H]4[C@@H](C)CC[C@@H]1[C@]24OO3 [Artelinic acid]		efficacy against Ehrlich ascots tumor cells	most water-soluble	stability (in words) [4]: most stable; water solubility (in words) (listed as artelinic acid): higher solubility in water
C[C@H]1[C@H](N2CCS(=O)(=O)CC2)O[C@@H]2O[C@@]3(C)CC[C@H]4[C@H](C)CC[C@@H]1[C@@]24OO3 [Artemisone]				antimalarial activity (in words) ([2]; Haynes et al. 2006): high antimalarial activity
C[C@@H]1CC[C@H]2[C@@H](C)C(=O)O[C@@H]3O[C@@]4(C)CC[C@@H]1[C@]32OO4 [Artemisinin, (3R,5aS,6R,8aS,9R,12S,12aR)-octahydro-3,6,9-trimethyl-3,12-epoxy-12H-pyr-ano[4,3-j]-1,2-benzodioxepin-10(3H)-one]		efficacy against Ehrlich ascots tumor cells	poor water solubility	toxicity to cancer cells in vitro (in words) [5]: toxic to cancer cells in vitro
CCCOC(=O)OC1O[C@@H]2O[C@@]3(C)CC[C@H]4[C@H](C)CC[C@@H]([C@H]1C)[C@@]24OO3 (stereo partly shown) [propylcarbonate dihydroartemisinin]	100		higher solubility in water	
C[C@H]1[C@@H](OCc2ccc(C(=O)O)cc2)O[C@@H]2O[C@]3(C)CC[C@H]4[C@H](C)CC[C@@H]1[C@@]24OO3 [sodium artelinate]		efficacy against Ehrlich ascots tumor cells		
C[C@H]1[C@@H](O)O[C@@H]2O[C@@]3(C)CC[C@H]4[C@H](C)CC[C@@H]1[C@@]24OO3 [Dihydroartemisinin]			higher solubility in water	
